From US10105357B2, “Indication of antibiotic drugs for preparation of cancer inhibition pharmaceutical composition” (LAUNX BIOMEDICAL CO., LTD., priority 2014, dated 2018)
Where two headings read alike, the source gives them in different places.

Experiments:
Type in all cases: cell-based, human
[1] = tested on: cancer cell lines; assay: Cell viability analysis (WST-1) on cancer cell lines; conditions: drug 10 μM, 72 hours, WST-1; Table 3
[2] = tested on: HI650 (Lung Adenocarcinoma); assay: Cell viability analysis, lung cancer HI650; conditions: for viability at 10 µM: Homo sapiens, NCI-H1650, 72 h
[3] = tested on: A549 (Lung Adenocarcinoma); assay: Cell viability analysis, lung cancer A549; conditions: for viability at 10 µM: Homo sapiens, A549, 72 h
[4] = tested on: AGS (Gastric Adenocarcinoma); assay: Cell viability analysis, gastric cancer AGS; conditions: 72 h; for viability at 10 µM: Homo sapiens
[5] = tested on: MKN-45 (Gastric Adenocarcinoma); assay: Cell viability analysis, gastric cancer MKN-45; conditions: for viability at 10 µM: Homo sapiens, MKN-45, 72 h
[6] = tested on: HepG2 (Hepatocellular Carcinoma); assay: Cell viability analysis, hepatic cancer HepG2; conditions: for viability at 10 µM: Homo sapiens, HepG2, 72 h
[7] = tested on: LoVo (Colorectal Adenocarcinoma); assay: Cell viability analysis, colon cancer LoVo; conditions: 72 h; for viability at 10 µM: Homo sapiens, LoVo, read-out: cell viability (survival rate), LoVo, drug 10 μM, 72 hours, WST-1, OD450 nm
[8] = tested on: A375 (Amelanotic Melanoma); assay: Cell viability analysis, skin cancer A375; conditions: for viability at 10 µM: Homo sapiens, A-375, 72 h
[9] = tested on: HeLa (Cervix Adenocarcinoma); assay: Cell viability analysis, cervical cancer HeLa; conditions: 72 h; for viability at 10 µM: Homo sapiens, HeLa
[10] = tested on: PC3 (p53−) (Prostate Adenocarcinoma); assay: Cell viability analysis, prostate cancer PC3; conditions: 72 h; for viability at 10 µM: Homo sapiens
[11] = tested on: TSGH-8301 (Urinary Bladder Carcinoma); assay: Cell viability analysis, bladder cancer TSGH-8301; conditions: 72 h; for viability at 10 µM: Homo sapiens
[12] = tested on: MCF7 (Mammary Gland, Adenocarcinoma); assay: Cell viability analysis, breast cancer MCF7; conditions: for viability at 10 µM: Homo sapiens, MCF7, 72 h
[13] = tested on: HL-60 (Acute Promyelocytic Leukemia); assay: Cell viability analysis, leukemia HL-60; conditions: for viability at 10 µM: Homo sapiens, HL-60, 72 h
[14] = read-out: cell viability (survival rate), H1650, drug 10 μM, 72 hours, WST-1, OD450 nm
[15] = read-out: cell viability (survival rate), A549, drug 10 μM, 72 hours, WST-1, OD450 nm
[16] = read-out: cell viability (survival rate), AGS, drug 10 μM, 72 hours, WST-1, OD450 nm
[17] = read-out: cell viability (survival rate), MKN-45, drug 10 μM, 72 hours, WST-1, OD450 nm
[18] = read-out: cell viability (survival rate), HepG2, drug 10 μM, 72 hours, WST-1, OD450 nm
[19] = read-out: cell viability (survival rate), A375, drug 10 μM, 72 hours, WST-1, OD450 nm
[20] = read-out: cell viability (survival rate), HeLa, drug 10 μM, 72 hours, WST-1, OD450 nm
[21] = read-out: cell viability (survival rate), PC3, drug 10 μM, 72 hours, WST-1, OD450 nm
[22] = read-out: cell viability (survival rate), TSGH, drug 10 μM, 72 hours, WST-1, OD450 nm
[23] = read-out: cell viability (survival rate), MCF7, drug 10 μM, 72 hours, WST-1, OD450 nm
[24] = read-out: cell viability (survival rate), HL-60, drug 10 μM, 72 hours, WST-1, OD450 nm
[25] = drug 10 μM, 72 hours, WST-1, OD450 nm, read-out: cell viability (survival rate), H1650
[26] = drug 10 μM, 72 hours, WST-1, OD450 nm, read-out: cell viability (survival rate), A549
[27] = drug 10 μM, 72 hours, WST-1, OD450 nm, read-out: cell viability (survival rate), AGS
[28] = drug 10 μM, 72 hours, WST-1, OD450 nm, read-out: cell viability (survival rate), MKN-45
[29] = drug 10 μM, 72 hours, WST-1, OD450 nm, read-out: cell viability (survival rate), HepG2
[30] = drug 10 μM, 72 hours, WST-1, OD450 nm, read-out: cell viability (survival rate), A375
[31] = drug 10 μM, 72 hours, WST-1, OD450 nm, read-out: cell viability (survival rate), HeLa
[32] = drug 10 μM, 72 hours, WST-1, OD450 nm, read-out: cell viability (survival rate), PC3
[33] = drug 10 μM, 72 hours, WST-1, OD450 nm, read-out: cell viability (survival rate), TSGH
[34] = drug 10 μM, 72 hours, WST-1, OD450 nm, read-out: cell viability (survival rate), MCF7
[35] = drug 10 μM, 72 hours, WST-1, OD450 nm, read-out: cell viability (survival rate), HL-60

Row | SMILES | inhibition effect on different cancer cell lines [1] | viability at 10 µM [2, 14] | viability at 10 µM [3, 15] | viability at 10 µM [4, 16] | viability at 10 µM [5, 17] | viability at 10 µM [6, 18] | viability at 10 µM [7] | viability at 10 µM [8, 19] | viability at 10 µM [9, 20] | viability at 10 µM [10, 21] | viability at 10 µM [11, 22] | viability at 10 µM [12, 23] | viability at 10 µM [13, 24] | also measured
1 | Cc1onc(-c2c(Cl)cccc2Cl)c1C(=O)N[C@@H]1C(=O)N2[C@@H]1SC(C)(C)[C@@H]2C(=O)O [Dicloxacillin Sodium] | significant inhibition effect | 68.4% | 61.8% | 147% | 66.4% | 102% | 92.4% | 79% | 60.1% | 71.1% | 84.3% | 45.3% | 72.7% | –
2 | NC1CCN(c2c(F)cc3c(=O)c(C(=O)O)cn(C4CC4)c3c2Cl)C1 (stereo not shown) [Clinafloxacin (PD127391), Clinafloxacin] | significant inhibition effect | 72.4% | 67.5% | 74.2% | 91.3% | 73.8% | 92.7% | 59.3% | 97% | 36.7% | 83.3% | 78.6% | 71.2% | –
3 | N[C@@H](C(=O)N[C@@H]1C(=O)N2C(C(=O)O)=C(Cl)CS[C@H]12)c1ccccc1 [Cefaclor (Ceclor), Cefaclor] | significant inhibition effect | – | – | – | – | – | 88.2% | – | – | – | – | – | – | viability at 10 µM [2, 25]: 62.3%; viability at 10 µM [3, 26]: 61%; viability at 10 µM [4, 27]: 41.9%; viability at 10 µM [5, 28]: 97%; viability at 10 µM [6, 29]: 108%; viability at 10 µM [8, 30]: 67.5%; viability at 10 µM [9, 31]: 86.7%; viability at 10 µM [10, 32]: 70.1%; viability at 10 µM [11, 33]: 81.6%; viability at 10 µM [12, 34]: 90.6%; viability at 10 µM [13, 35]: 112%
4 | Cc1cc(NS(=O)(=O)c2ccc(N)cc2)no1 [Sulfamethoxazole] | significant inhibition effect | 85.8% | 43.9% | 67.7% | 60.7% | 115% | 71.7% | 44.3% | 87.8% | 44.9% | 62.1% | 46.1% | 99.4% | –
5 | CO/N=C(\C(=O)N[C@@H]1C(=O)N2C(C(=O)OCOC(=O)C(C)(C)C)=C(/C=C\c3scnc3C)CS[C@H]12)c1csc(N)n1 [Cefditoren pivoxil] | significant inhibition effect | – | – | – | – | – | 83.5% | – | – | – | – | – | – | viability at 10 µM [2, 25]: 80.7%; viability at 10 µM [3, 26]: 45.7%; viability at 10 µM [4, 27]: 86.5%; viability at 10 µM [5, 28]: 70.5%; viability at 10 µM [6, 29]: 96.9%; viability at 10 µM [8, 30]: 69.1%; viability at 10 µM [9, 31]: 58.7%; viability at 10 µM [10, 32]: 83.9%; viability at 10 µM [11, 33]: 94.8%; viability at 10 µM [12, 34]: 38.4%; viability at 10 µM [13, 35]: 110%
6 | CN1CCN(c2c(F)cc3c(=O)c(C(=O)O)cn4c3c2OCN4C)CC1 [Marbofloxacin] | significant inhibition effect | 80.3% | 83.8% | 81.2% | 112% | 95.6% | 108% | 86.8% | 88.2% | 78.4% | 91.6% | 92.3% | 105% | –
7 | CC1(C)S[C@@H]2[C@H](NC(=O)[C@H](N)c3ccccc3)C(=O)N2[C@H]1C(=O)O [Ampicillin Trihydrate] | significant inhibition effect | – | – | – | – | – | – | – | – | – | – | – | – | cell viability (survival rate), H1650 ([2]; human, 72 h, 10 µM): 63.6; cell viability (survival rate), A549 ([3]; human, 72 h, 10 µM): 41.9; cell viability (survival rate), AGS ([4]; human, 10 µM): 95.3; cell viability (survival rate), MKN-45 ([5]; human, 72 h, 10 µM): 56.3; cell viability (survival rate), HepG2 ([6]; human, 72 h, 10 µM): 92.4; cell viability (survival rate), LoVo ([7]; human, 10 µM): 78.4; cell viability (survival rate), A375 ([8]; human, 72 h, 10 µM): 53.7; cell viability (survival rate), HeLa ([9]; human, 10 µM): 59.3; cell viability (survival rate), PC3 ([10]; human, 10 µM): 65.3; cell viability (survival rate), TSGH ([11]; human, 10 µM): 61.3; cell viability (survival rate), MCF7 ([12]; human, 72 h, 10 µM): 36.5; cell viability (survival rate), HL-60 ([13]; human, 72 h, 10 µM): 92.7
